Experimental data reported in patent US20230115274A1, “COMPOUNDS AND COMPOSITIONS FOR TREATING CONDITIONS ASSOCIATED WITH STING ACTIVITY” (IFM Due, Inc., priority 2019, published 2023).

Biological target: T1, hSTING (Homo sapiens, UniProt Q86WV6, G230A/H232R/R293Q/R71H)
T1 construct: host or cells: THP1-Dual KO-IFNAR2 cells
Assay: STING reporter assay (luciferase) in THP1-Dual KO-IFNAR2 cells stimulated with 2′3′cGAMP
Assay type: cell-based
Conditions: 2′3′cGAMP 15 μM, 24 h
Method in brief: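 THP1-Dual KO-IFNAR2 cells (2×10E6 cells/mL) were treated with compound at 0.0017-100 μM final plus 15 μM final 2′3′cGAMP delivered with Lipofectamine 2000. After 24 h at 37° C., secreted luciferase in supernatant was read by QUANTI-Luc luminescence and EC50 values were fitted.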

T1 sequence (Q86WV6 whole entry R71H/G230A/H232R/R293Q): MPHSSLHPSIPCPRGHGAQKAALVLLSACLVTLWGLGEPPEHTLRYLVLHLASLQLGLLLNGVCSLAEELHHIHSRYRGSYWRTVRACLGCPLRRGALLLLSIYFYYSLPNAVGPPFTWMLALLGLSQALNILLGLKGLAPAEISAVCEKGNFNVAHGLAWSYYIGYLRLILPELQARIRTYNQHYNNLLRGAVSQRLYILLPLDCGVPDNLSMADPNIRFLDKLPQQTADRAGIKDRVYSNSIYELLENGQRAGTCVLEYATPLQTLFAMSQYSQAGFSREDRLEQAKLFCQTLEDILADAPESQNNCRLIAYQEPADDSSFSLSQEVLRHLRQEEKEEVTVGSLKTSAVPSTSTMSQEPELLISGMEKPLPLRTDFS

Row | EC50 (class symbols) | EC50 (numeric bounds) | Compound
1 | 200 to 1000 nM |  | COc1ccc2[nH]cc(NC(=O)Nc3cnc(C4CCC(F)(F)CC4)c(C#N)c3)c2n1 [Compound 140, 1-(5-cyano-6-(4,4-difluorocyclohexyl)pyridin-3-yl)-3-(5-methoxy-1H-pyrrolo[3,2-b]pyridin-3-yl)urea]
2 | 1000 to 5000 nM |  | O=C(Nc1cc(Cl)c(N2CCC(F)(F)CC2)cn1)Nc1c[nH]c2cccnc12 [Compound 235, 1-(4-chloro-5-(4,4-difluoropiperidin-1-yl)pyridin-2-yl)-3-(1H-pyrrolo[3,2-b]pyridin-3-yl)urea]
3 |  | > 30000 nM | O=C(Nc1cnn(C2CCC(F)(F)CC2)c1)Nc1c[nH]c2cccnc12 [Compound 205, 1-(1-(4,4-difluorocyclohexyl)-1H-pyrazol-4-yl)-3-(1H-pyrrolo[3,2-b]pyridin-3-yl)urea]
4 | 1000 to 5000 nM |  | O=C(Nc1cnc(N2CCN(CCC(F)(F)F)CC2)c(Cl)c1)Nc1c[nH]c2cccnc12 [Compound 225, 1-(5-chloro-6-(4-(3,3,3-trifluoropropyl)piperazin-1-yl)pyridin-3-yl)-3-(1H-pyrrolo[3,2-b]pyridin-3-yl)urea]
5 | 200 to 1000 nM |  | COc1cc2c(NC(=O)Nc3ccc(C4CCC(F)(F)CC4)c(C#N)c3)c[nH]c2cn1 [Compound 154, 1-(3-cyano-4-(4,4-difluorocyclohexyl)phenyl)-3-(5-methoxy-1H-pyrrolo[2,3-c]pyridin-3-yl)urea]
6 | 200 to 1000 nM |  | CC(=O)n1cc(NC(=O)Nc2ccc(C3CCC(F)(F)CC3)nc2)c2cc(F)cnc21 [Compound 122, 1-(1-acetyl-5-fluoro-1H-pyrrolo[2,3-b]pyridin-3-yl)-3-(6-(4,4-difluorocyclohexyl)pyridin-3-yl)urea]
7 |  | > 30000 nM | O=C(Nc1cnc(N2CCC(F)(F)CC2)cc1Cl)Nc1c[nH]c2ncc(F)cc12 [Compound 183, 1-(4-chloro-6-(4,4-difluoropiperidin-1-yl)pyridin-3-yl)-3-(5-fluoro-1H-pyrrolo[2,3-b]pyridin-3-yl)urea]
8 | 5000 to 100000 nM |  | O=C(Nc1ccc(C2CCC(F)(F)CC2)nc1)Nc1c[nH]c2nc(Br)c(F)cc12 [Compound 180, 1-(6-bromo-5-fluoro-1H-pyrrolo[2,3-b]pyridin-3-yl)-3-(6-(4,4-difluorocyclohexyl)pyridin-3-yl)urea]
9 | 200 to 1000 nM |  | CC(C)n1cc(-c2cnc3[nH]cc(NC(=O)Nc4ccc(C5CCC(F)(F)CC5)nc4)c3c2)cn1 [Compound 107, 1-(6-(4,4-difluorocyclohexyl)pyridin-3-yl)-3-(5-(1-isopropyl-1H-pyrazol-4-yl)-1H-pyrrolo[2,3-b]pyridin-3-yl)urea]
10 | 200 to 1000 nM |  | COc1ccc2[nH]cc(NC(=O)Nc3ccc(C4CCC(F)(F)CC4)nc3)c2n1 [Compound 213, 1-(6-(4,4-difluorocyclohexyl)pyridin-3-yl)-3-(5-methoxy-1H-pyrrolo[3,2-b]pyridin-3-yl)urea]
11 | 200 to 1000 nM |  | COc1cc(NC(=O)Nc2c[nH]c3ncc(F)cc23)cnc1C1CCC(F)(F)CC1 [Compound 164, 1-(6-(4,4-difluorocyclohexyl)-5-methoxypyridin-3-yl)-3-(5-fluoro-1H-pyrrolo[2,3-b]pyridin-3-yl)urea]
12 | 200 to 1000 nM |  | COc1ccc2[nH]cc(NC(=O)Nc3cnc(C4CC(F)(F)C4)c(Cl)c3)c2n1 [Compound 243, 1-(5-chloro-6-(3,3-difluorocyclobutyl)pyridin-3-yl)-3-(5-methoxy-1H-pyrrolo[3,2-b]pyridin-3-yl)urea]
13 |  | > 30000 nM | O=C(Nc1ccc(N2CCC(F)(F)CC2)nc1)Nc1c[nH]c2cccnc12 [Compound 220, 1-(6-(4,4-difluoropiperidin-1-yl)pyridin-3-yl)-3-(1H-pyrrolo[3,2-b]pyridin-3-yl)urea]
14 | 40 to 200 nM |  | N#Cc1cc(NC(=O)Nc2c[nH]c3ncc(F)cc23)ccc1C1CCC(F)(F)CC1 [Compound 195, 1-(3-cyano-4-(4,4-difluorocyclohexyl)phenyl)-3-(5-fluoro-1H-pyrrolo[2,3-b]pyridin-3-yl)urea]
15 | 200 to 1000 nM |  | O=C(Nc1ccc(C2CCC(F)(F)CC2)nc1)Nc1c[nH]c2ncc(Cl)cc12 [Compound 108, 1-(5-chloro-1H-pyrrolo[2,3-b]pyridin-3-yl)-3-(6-(4,4-difluorocyclohexyl)pyridin-3-yl)urea]
16 |  | > 10000 nM | O=C(Nc1cnc(N2CC(F)(F)C2)c(Cl)c1)Nc1c[nH]c2cccnc12 [Compound 242, 1-(5-chloro-6-(3,3-difluoroazetidin-1-yl)pyridin-3-yl)-3-(1H-pyrrolo[3,2-b]pyridin-3-yl)urea]
17 | 5000 to 100000 nM |  | O=C(Nc1cnc(Cl)c(C2CCC(F)(F)CC2)c1)Nc1c[nH]c2cccnc12 [Compound 214, 1-(6-chloro-5-(4,4-difluorocyclohexyl)pyridin-3-yl)-3-(1H-pyrrolo[3,2-b]pyridin-3-yl)urea]
18 | 200 to 1000 nM |  | N#Cc1cc(NC(=O)Nc2c[nH]c3cccnc23)ccc1C1CCC(F)(F)CC1 [Compound 148, 1-(3-cyano-4-(4,4-difluorocyclohexyl)phenyl)-3-(1H-pyrrolo[3,2-b]pyridin-3-yl)urea]

Row | EC50 (class symbols) | EC50 (numeric bounds) | Compound
19 | 1000 to 5000 nM |  | COc1ccc2[nH]cc(NC(=O)Nc3cnc(N4CC(F)(F)C4)c(F)c3)c2n1 [Compound 232, 1-(6-(3,3-difluoroazetidin-1-yl)-5-fluoropyridin-3-yl)-3-(5-methoxy-1H-pyrrolo[3,2-b]pyridin-3-yl)urea]
20 | 200 to 1000 nM |  | O=C(Nc1cnc(C2CCN(CC(F)(F)F)CC2)c(Cl)c1)Nc1c[nH]c2cccnc12 [Compound 222, 1-(5-chloro-6-(1-(2,2,2-trifluoroethyl)piperidin-4-yl)pyridin-3-yl)-3-(1H-pyrrolo[3,2-b]pyridin-3-yl)urea]
21 | 200 to 1000 nM |  | O=C(Nc1cnc(C2CC(F)(F)C2)c(Cl)c1)Nc1c[nH]c2cccnc12 [Compound 143, 1-(5-chloro-6-(3,3-difluorocyclobutyl)pyridin-3-yl)-3-(1H-pyrrolo[3,2-b]pyridin-3-yl)urea]
22 | 200 to 1000 nM |  | COc1ccc2[nH]cc(NC(=O)Nc3cnc(N4CCC(F)(F)CC4)c(C)c3)c2n1 [Compound 173, 1-(6-(4,4-difluoropiperidin-1-yl)-5-methylpyridin-3-yl)-3-(5-methoxy-1H-pyrrolo[3,2-b]pyridin-3-yl)urea]
23 | 200 to 1000 nM |  | COc1cc(NC(=O)Nc2c[nH]c3ncc(F)cc23)ncc1C1CCC(F)(F)CC1 [Compound 160, 1-(5-(4,4-difluorocyclohexyl)-4-methoxypyridin-2-yl)-3-(5-fluoro-1H-pyrrolo[2,3-b]pyridin-3-yl)urea]
24 | 40 to 200 nM |  | COc1ccc2[nH]cc(NC(=O)Nc3cnc(C4CCC(F)(F)CC4)c(Cl)c3)c2n1 [Compound 233, 1-(5-chloro-6-(4,4-difluorocyclohexyl)pyridin-3-yl)-3-(5-methoxy-1H-pyrrolo[3,2-b]pyridin-3-yl)urea]
25 | 200 to 1000 nM |  | O=C(Nc1cnc(N2CC3(C2)CC(F)(F)C3)c(Cl)c1)Nc1c[nH]c2cccnc12 [Compound 223, 1-(5-chloro-6-(6,6-difluoro-2-azaspiro[3.3]heptan-2-yl)pyridin-3-yl)-3-(1H-pyrrolo[3,2-b]pyridin-3-yl)urea]
26 |  | > 30000 nM | Cc1cc(NC(=O)Nc2c[nH]c3ncc(F)cc23)cnc1N1CCOCC1 [Compound 167, 1-(5-fluoro-1H-pyrrolo[2,3-b]pyridin-3-yl)-3-(5-methyl-6-morpholinopyridin-3-yl)urea]
27 | 1000 to 5000 nM |  | O=C(Nc1cnc(N2CCC3(CCCCO3)CC2)c(Cl)c1)Nc1c[nH]c2cccnc12 [Compound 215, 1-(5-chloro-6-(1-oxa-9-azaspiro[5.5]undecan-9-yl)pyridin-3-yl)-3-(1H-pyrrolo[3,2-b]pyridin-3-yl)urea]
28 | 200 to 1000 nM |  | COc1ccc2[nH]cc(NC(=O)Nc3ccc(C4CCC(F)(F)CC4)c(C#N)c3)c2n1 [Compound 150, 1-(3-cyano-4-(4,4-difluorocyclohexyl)phenyl)-3-(5-methoxy-1H-pyrrolo[3,2-b]pyridin-3-yl)urea]
29 |  | > 30000 nM | CS(=O)(=O)n1cc(NC(=O)Nc2ccc(C3CCC(F)(F)CC3)nc2)c2cc(F)cnc21 [Compound 197, 1-(6-(4,4-difluorocyclohexyl)pyridin-3-yl)-3-(5-fluoro-1-(methylsulfonyl)-1H-pyrrolo[2,3-b]pyridin-3-yl)urea]
30 | 1000 to 5000 nM |  | Cc1cc(NC(=O)Nc2c[nH]c3ncc(Cl)cc23)cnc1C1CCC(F)(F)CC1 [Compound 137, 1-(5-chloro-1H-pyrrolo[2,3-b]pyridin-3-yl)-3-(6-(4,4-difluorocyclohexyl)-5-methylpyridin-3-yl)urea]
31 |  | > 30000 nM | O=C(Nc1cnn(CC2CCC(F)(F)CC2)c1)Nc1c[nH]c2cccnc12 [Compound 206, 1-(1-((4,4-difluorocyclohexyl)methyl)-1H-pyrazol-4-yl)-3-(1H-pyrrolo[3,2-b]pyridin-3-yl)urea]
32 | 200 to 1000 nM |  | N#Cc1cc(NC(=O)Nc2c[nH]c3ncc(F)cc23)cnc1N1CCC(F)(F)CC1 [Compound 157, 1-(5-cyano-6-(4,4-difluoropiperidin-1-yl)pyridin-3-yl)-3-(5-fluoro-1H-pyrrolo[2,3-b]pyridin-3-yl)urea]
33 | 200 to 1000 nM |  | N#Cc1cc(NC(=O)Nc2c[nH]c3c(F)cncc23)ccc1C1CCC(F)(F)CC1 [Compound 149, 1-(3-cyano-4-(4,4-difluorocyclohexyl)phenyl)-3-(7-fluoro-1H-pyrrolo[3,2-c]pyridin-3-yl)urea]
34 | 200 to 1000 nM |  | O=C(Nc1cnc(C2CCC(F)(F)CC2)c(Cl)c1)Nc1c[nH]c2ncc(F)cc12 [Compound 199, 1-(5-chloro-6-(4,4-difluorocyclohexyl)pyridin-3-yl)-3-(5-fluoro-1H-pyrrolo[2,3-b]pyridin-3-yl)urea]
35 | 200 to 1000 nM |  | COc1cc(NC(=O)Nc2c[nH]c3ncc(F)cc23)cnc1N1CCC(F)(F)CC1 [Compound 165, 1-(6-(4,4-difluoropiperidin-1-yl)-5-methoxypyridin-3-yl)-3-(5-fluoro-1H-pyrrolo[2,3-b]pyridin-3-yl)urea]
36 | 5000 to 100000 nM |  | O=C(Nc1cnc(N2CCC3(CC2)CCC(F)(F)CO3)c(Cl)c1)Nc1c[nH]c2cccnc12 [Compound 207, 1-(5-chloro-6-(3,3-difluoro-1-oxa-9-azaspiro[5.5]undecan-9-yl)pyridin-3-yl)-3-(1H-pyrrolo[3,2-b]pyridin-3-yl)urea]
